{"source": "patent US5731326A", "about": "“PDGF antagonists II” (ZymoGenetics, Inc., priority 1996, dated 1998)", "key": {"[1]": {"target": "T1, cell-surface PDGF receptors (Rattus norvegicus, UniProt Q05030)", "T1 construct": "endogenous in cells; host or cells: rat smooth muscle cells (SMCs), monolayer culture", "T1 sequence (Q05030 32-1097)": "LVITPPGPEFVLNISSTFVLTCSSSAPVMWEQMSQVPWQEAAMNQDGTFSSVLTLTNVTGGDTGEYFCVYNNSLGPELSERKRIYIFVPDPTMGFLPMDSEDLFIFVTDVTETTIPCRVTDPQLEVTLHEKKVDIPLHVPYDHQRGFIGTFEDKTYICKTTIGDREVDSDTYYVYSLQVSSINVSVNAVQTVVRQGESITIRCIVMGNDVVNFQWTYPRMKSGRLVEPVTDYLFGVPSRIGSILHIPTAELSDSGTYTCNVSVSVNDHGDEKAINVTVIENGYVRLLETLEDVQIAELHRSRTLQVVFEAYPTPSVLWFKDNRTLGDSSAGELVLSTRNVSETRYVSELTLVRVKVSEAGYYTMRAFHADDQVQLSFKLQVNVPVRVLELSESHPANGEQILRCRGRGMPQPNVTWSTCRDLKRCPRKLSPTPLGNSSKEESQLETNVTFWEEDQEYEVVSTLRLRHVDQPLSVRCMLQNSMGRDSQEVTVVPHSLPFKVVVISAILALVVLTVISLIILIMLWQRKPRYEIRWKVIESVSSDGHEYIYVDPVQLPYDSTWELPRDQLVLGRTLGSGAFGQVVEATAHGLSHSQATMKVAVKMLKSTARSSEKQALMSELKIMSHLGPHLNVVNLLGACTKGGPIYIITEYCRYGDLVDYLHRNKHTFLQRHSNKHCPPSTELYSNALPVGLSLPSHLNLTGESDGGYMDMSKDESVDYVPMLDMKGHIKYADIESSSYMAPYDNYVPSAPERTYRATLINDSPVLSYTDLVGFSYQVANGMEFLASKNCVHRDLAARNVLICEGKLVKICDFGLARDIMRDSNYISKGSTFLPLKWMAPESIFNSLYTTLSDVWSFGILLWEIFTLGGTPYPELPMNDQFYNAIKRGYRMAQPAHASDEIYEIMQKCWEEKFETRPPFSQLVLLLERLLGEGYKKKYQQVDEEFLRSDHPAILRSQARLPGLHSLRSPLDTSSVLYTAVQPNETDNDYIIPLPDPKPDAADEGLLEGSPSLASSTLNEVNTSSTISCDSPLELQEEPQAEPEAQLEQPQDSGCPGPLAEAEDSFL", "assay": "Inhibition of 125I-PDGF-BB binding to rat SMCs", "settings": "for 125I PDGF-BB Bound (CPM): specific cpm, nonspecific subtracted, negative control 10006", "description": "(§1) NNC92-0270 was analyzed for the ability to inhibit ^125 I-PDGF-BB binding to monolayers of rat SMCs. To assay for inhibition of ^125 I-PDGF-BB binding to rat SMCs, the SMCs were plated at approximately 20,000 cells/well in 24-well culture dishes. The cells were used for assay 2-7 days after plating. The test compound was diluted in binding media (500 ml Ham's F-12 (Gibco BRL), 12 ml 1M Hepes pH 7.4, 5 ml 100×PSN (Gibco BRL), 1 gm rabbit serum albumin (Sigma Chemical Co., St. Louis, Mo.) to the concentrations shown in Table 2, then added to the SMCs (1 ml/well) in triplicate. To the wells was then added 50 μl of a ^125 I-PDGF-BB stock solution. Binding media alone was used as the negative control, and the addition of 200 ng/ml of PDGF-BB was used to determine nonspecific binding for ^125 I-PDGF-BB. The cells were incubated for approximately 11/2 hours at 4° C., then washed with binding media to remove unbound ligand. The cells were then incubated with extraction buffer (20 mM Tris-HCl, pH 8.0, 100 mM NaCl, 1 mM EDTA, 0.5% Nonident P-40, 0.5% sodium deoxycholate, 10 mM NaI, 1% bovine serum albumin), and the extracts were harvested and counted in a gamma counter. The data are presented as specific cpm bound for ^125 I-PDGF-BB. Nonspecific binding, determined by the addition of 200 ng/ml of unlabeled PDGF-BB, was 853 cpm, and has been subtracted from the data presented."}, "[2]": {"system": "baboon smooth muscle cells", "assay": "Wash-out study of PDGF-BB mitogenic activity on baboon smooth muscle cells", "assay_type": "cell-based", "settings": "mean +/- SD", "description": "NNC92-0270 was analyzed for prolonged inhibitory effect on PDGF-BB mitogenic activity on baboon smooth muscle cells in a wash-out experiment. Baboon SMCs were plated at 20,000 cells per well in a 24-well culture dish and grown for 2 days. The culture media was removed and replaced with Mito Media (Table 5) to allow the cells to become quiescent. The experiment was set up such that cells were treated with NNC92-0270 or vehicle control (0.5% DMSO) for either 24 hours prior to the addition of PDGF-BB, or sequentially with the addition of PDGF-BB. Those cells initially treated with NNC92-0270 or control vehicle for 24 hours, were washed with Mito Media to remove the test compound and then incubated with PDGF-BB (1 ng/ml) for an additional 24 hours. A second set of cells was treated with NNC92-0270 or vehicle control simultaneously with PDGF-BB for 24 hours. The cells were pulse labeled for 4 hours with [^3 H] thymidine (1 μCi/ml final) harvested with trypsin and counted in a Wallac Betaplate counter to determine CPM for [^3 H] thymidine incorporation.\nAcetic acid (10 mM) was used as the PDGF-BB vehicle control and 0.5% DMSO was used as the test compound control."}, "[3]": {"target": "T1, cell-surface PDGF receptors", "assay": "Inhibition of 125I-PDGF-BB binding to rat SMCs in the presence and absence of human serum", "settings": "for CPM Bound, Binding Media + 10% Human Serum / CPM Bound, Binding Media: total CPM bound; for CPM Bound, Binding Media + 10% Human Serum: neg. control 1152; for CPM Bound, Binding Media: neg. control 1990", "description": "as §1\nNNC92-0270 was subsequently analyzed for its ability to inhibit ^125 I-PDGF-BB binding to rat SMCs when the radioligand was added to the cells in the presence of 10% human serum. The rat SMCs were plated into 24-well culture dishes and assayed as described above. The test compound was diluted to the concentrations shown in Table 3 in either binding media alone, or binding media containing 10% human serum, and 1 ml aliquots added to the test cells in triplicate. Fifty microliters of a 20×stock solution of ^125 I-PDGF-BB was added to each well. The cells were incubated for 2.5 hours at 4 ° C., washed with binding media to remove unbound ligand, and harvested with extraction buffer. The extracts were then counted in a gamma counter to determine CPM bound. […] It should be noted that the binding of ^125 I-PDGF-BB was lower in the negative control sample containing the human serum, over the negative control sample with binding media alone. The results are presented as total CPM bound."}}, "data": [{"compound": "O=C(NN1CCCCC1)NS(=O)(=O)c1ccc(CCNC(=O)c2[nH]c3ccccc3c2OCc2ccccc2)cc1", "note": "[NNC92-0270]", "values": [{"measurement": "125I PDGF-BB Bound (CPM)", "setting": "[1]; 6.2 μM", "value": 5228, "unit": "CPM"}, {"measurement": "125I PDGF-BB Bound (CPM)", "setting": "[1]; 12.5 μM", "value": 2823, "unit": "CPM"}, {"measurement": "125I PDGF-BB Bound (CPM)", "setting": "[1]; 25 μM", "value": 920, "unit": "CPM"}, {"measurement": "125I PDGF-BB Bound (CPM)", "setting": "[1]; 50 μM", "value": 532, "unit": "CPM"}, {"measurement": "125I PDGF-BB Bound (CPM)", "setting": "[1]; 100 μM", "value": 378, "unit": "CPM"}, {"measurement": "remaining activity at 6.2 µM", "setting": "[1]; 1.5 h, 6.2 μM, read-out: % Control Binding", "value": 52, "unit": "%"}, {"measurement": "remaining activity at 12.5 µM", "setting": "[1]; 1.5 h, 12.5 μM, read-out: % Control Binding", "value": 28, "unit": "%"}, {"measurement": "remaining activity at 25 µM", "setting": "[1]; 1.5 h, 25 μM, read-out: % Control Binding", "value": 9, "unit": "%"}, {"measurement": "remaining activity at 50 µM", "setting": "[1]; 1.5 h, 50 μM, read-out: % Control Binding", "value": 5, "unit": "%"}, {"measurement": "remaining activity at 100 µM", "setting": "[1]; 1.5 h, 100 μM, read-out: % Control Binding", "value": 4, "unit": "%"}, {"measurement": "Inhibition of PDGF-BB binding to cell-surface PDGF receptors (in words)", "setting": "[1]; rat SMCs", "value": "potent inhibitor"}, {"measurement": "[3H] Thymidine Incorporation (cpm)", "setting": "[2]; T = -24 hrs 0.5% DMSO, T = 0 hrs compound simultaneously with PDGF-BB (1 ng/ml)", "value": "678 +/- 68 cpm"}, {"measurement": "[3H] Thymidine Incorporation (cpm)", "setting": "[2]; T = -24 hrs compound, washed out, T = 0 hrs PDGF-BB (1 ng/ml)", "value": "5735 +/- 474 cpm"}, {"measurement": "[3H] Thymidine Incorporation (cpm)", "setting": "[2]; T = -24 hrs compound, washed out, T = 0 hrs acetic acid (no PDGF-BB)", "value": "237 +/- 36 cpm"}, {"measurement": "remaining activity at 12.5 µM", "setting": "[3]; 12.5 μM, 10% human serum, read-out: % CB (% Control Binding), Binding Media + 10% Human Serum", "value": 30, "unit": "%"}, {"measurement": "CPM Bound, Binding Media + 10% Human Serum", "setting": "[3]; 12.5 μM, 10% human serum", "value": 349, "unit": "CPM"}, {"measurement": "remaining activity at 12.5 µM", "setting": "[3]; 12.5 μM, binding media alone, read-out: % CB (% Control Binding), Binding Media", "value": 36, "unit": "%"}, {"measurement": "CPM Bound, Binding Media", "setting": "[3]; 12.5 μM, binding media alone", "value": 722, "unit": "CPM"}, {"measurement": "remaining activity at 25 µM", "setting": "[3]; 25 μM, 10% human serum, read-out: % CB (% Control Binding), Binding Media + 10% Human Serum", "value": 21, "unit": "%"}, {"measurement": "CPM Bound, Binding Media + 10% Human Serum", "setting": "[3]; 25 μM, 10% human serum", "value": 244, "unit": "CPM"}, {"measurement": "remaining activity at 25 µM", "setting": "[3]; 25 μM, binding media alone, read-out: % CB (% Control Binding), Binding Media", "value": 30, "unit": "%"}, {"measurement": "CPM Bound, Binding Media", "setting": "[3]; 25 μM, binding media alone", "value": 605, "unit": "CPM"}, {"measurement": "remaining activity at 50 µM", "setting": "[3]; 50 μM, 10% human serum, read-out: % CB (% Control Binding), Binding Media + 10% Human Serum", "value": 14, "unit": "%"}, {"measurement": "CPM Bound, Binding Media + 10% Human Serum", "setting": "[3]; 50 μM, 10% human serum", "value": 162, "unit": "CPM"}, {"measurement": "remaining activity at 50 µM", "setting": "[3]; 50 μM, binding media alone, read-out: % CB (% Control Binding), Binding Media", "value": 23, "unit": "%"}, {"measurement": "CPM Bound, Binding Media", "setting": "[3]; 50 μM, binding media alone", "value": 467, "unit": "CPM"}, {"measurement": "Potency for inhibiting 125I-PDGF-BB binding in 10% human serum compared to binding media alone (in words)", "setting": "[3]; rat SMCs", "value": "approximately equal potency"}]}]}
